# Test results taken from patent US9540299B2, “MTOR-independent activator of TFEB for autophagy enhancement and uses thereof” (Hong Kong Baptist University, priority 2015, dated 2017).
# System: N2a cells
# Assay: LC3-II levels by western blot in N2a cells (autophagy induction)
# Format: cell-based, mouse
# Conditions: for LC3-II levels in the presence of chloroquine compared with CQ treatment alone / LC3-II levels compared to the vehicle control: 12 h; for LC3-II levels in the presence of chloroquine compared with CQ treatment alone / LC3-II levels compared to the vehicle control / LC3-II levels in cells depleted of Atg5 by siRNA: analogs 1 μM; for LC3-II levels in the presence of chloroquine compared with CQ treatment alone: CQ 20 μM; for LC3-II levels compared to the vehicle control / LC3-II levels in cells depleted of Atg5 by siRNA: curcumin 10 μM; for LC3-II levels compared to the vehicle control: vs 0.1% DMSO; for LC3-II levels in cells depleted of Atg5 by siRNA: siAtg5 72 h then compound 12 h
# Description: N2a cells were treated with curcumin (Cur, 10 μM) and its analogs (1 μM) for 12 h (FIG. 2A). N2a cells were treated with Cur (10 μM), analogs A2, B3 and C1 (1 μM) with or without chloroquine (CQ, 20 μM) for 12 h (FIG. 2B). N2a cells were transfected with non-target siRNA (siNT) or Atg5 siRNA (siAtg5, 50 nM) for 72 h and then treated with Cur (10 μM) and analogs A2, B3 and C1 (1 μM) for 12 h (FIG. 2C). The expression of LC3-II is determined by western blot. Relative intensity is normalized to that of ACTB/β-actin. Data are presented as the mean±SD from three independent experiments. *p<0.05 vs. the control (0.1% DMSO); #p<0.05 vs. CQ treatment alone. N. S.=not significant.
# (§1) N2a cells are treated with curcumin E series analogs (1 μM) for 12 hours. The expression of LC3-II is shown in Western blot (FIG. 13A). LC3-II relative intensity is normalized to that of ACTB/β-actin. Quantification data (FIG. 13B) are presented as the mean±SD from three independent experiments. *p<0.05 vs. the control (0.1% DMSO).
# as §1, with “E2, E3 and E4” for “curcumin E series analogs”, “(1 μM) in the presence or absence of chloroquine (CQ, 20” for “(1”, “14A).” for “13A).”, “14B)” for “13B)”, “DMSO); ^#p<0.05 vs. CQ treatment alone.” for “DMSO).”
# as §1, with “E4” for “curcumin E series analogs (1 μM)”, “determined by” for “shown in”, “blotting” for “blot”, “20A).” for “13A).”, “20B)” for “13B)”, “*p<0.05, **p<0.01” for “*p<0.05”
# N2a cells are transfected with non-target siRNA (Si-NT) and TFEB siRNA. The levels of TFEB is examined by Western blotting (FIG. 27A) analysis and quantified (FIG. 27B). The effects of knock-down the expression of TFEB on the expression of LC3-II levels induced by E4 (1 μM) is also examined by Western blotting (FIG. 27C). Quantification data are presented as the mean±SD from three independent experiments (FIG. 27D). *p<0.05 vs. the control (0.1% DMSO), # p<0.05 vs. CQ alone.
# N2a, Hela and Hela cells stably expressing 3×-Flag-TFEB are cultured in DMEM supplemented with 10% FBS. SH-SY5Y cells are cultured in DMEM/F12 supplemented with 10% FBS. For drug treatment, the full medium is replaced by fresh Opti-MEM I and then the compounds (in 0.1% DMSO) are added to the cells and incubated for 12 h. Inducible PC12 cells overexpressing SNCA (WT and A53T) (a kind gift from Prof. David C. Rubinsztein at Cambridge University) are grown in DMEM supplemented with 10% horse serum, 5% FBS, 50 μg/ml G418, and 150 μg/ml hygromycin B at 37° C., 10% CO2. Cells are treated with 2 μg/ml doxycycline (Dox) for 24 h to induce SNCA expression. The full medium is changed to Opti-MEM I containing the testing compounds for another 48 h.
# Mouse Atg5 siRNA (25 nM) or human TFEB (100 nM) siRNA and the non-target siRNAs are transfected with Lipofectamine RNAiMAX (13778030, Invitrogen) and incubated at 37° C. for 72 h.
# Cells are lysed on ice in 1× Lysis Buffer (9803, Life Technologies) with complete protease inhibitor mixture (04693124001, Roche Applied Science). Animal tissues are homogenized in nine volumes of ice-cold PBS supplemented with protease inhibitors. Cytosolic and nuclear fractions are isolated using protocols similar to those described previously. Anti-Flag or TFEB antibody is added to the whole cell lysates and Dynabeads® Protein G (10003D, Life Technologies) is used for immunoprecipitation. Proteins are separated by 10-15% SDS-PAGE, transferred, and blotted with the antibodies described. The blots are then incubated with secondary antibodies or the Clean-Blot IP Detection Reagent (21230, Thermo Scientific) at room temperature for 1 h. The protein signals are detected by ECL kit (32106, Pierce) and quantified using ImageJ software. […]
SMILES,"expression of LC3-II, dose-dependent (0-1 μM, 12 hours, dose-dependent manner)","autophagy-enhancing effect, comparison among E series compounds tested (1 μM, 12 hours)",LC3-II levels in the presence of chloroquine compared with CQ treatment alone,LC3-II levels compared to the vehicle control,"LC3-II levels compared with the control in cells transfected with non-target siRNA (Si-NT, 1 μM)","induced autophagy (LC3-II levels) after knock-down of TFEB (TFEB siRNA, 1 μM)",LC3-II levels in cells depleted of Atg5 by siRNA,"LC3-II levels plus CQ compared with CQ treatment alone in cells transfected with non-target siRNA (Si-NT, with CQ)"
O=C(/C=C/c1ccccc1I)/C=C/c1ccccc1I [E4],significantly increase,best autophagy-enhancing effect,further increase,significantly increase,significantly increases,attenuated,,
O=C(/C=C/c1ccccc1Cl)/C=C/c1ccccc1Cl [E2],,,further increase,significantly increase,,,,
O=C(/C=C/c1ccccc1Br)/C=C/c1ccccc1Br [E3],,,further increase,significantly increase,,,,
"O=C(/C=C/c1ccc(O)cc1)/C=C/c1ccc(O)cc1 [B3, 1,5-bis(4-hydroxyphenyl)penta-1,4-dien-3-one]",,,further increase,significantly increase,,,failed to increase,
"O=C(/C=C/c1cccc(C(F)(F)F)c1)/C=C/c1cccc(C(F)(F)F)c1 [A2, 1,5-bis(3-(trifluoromethyl)phenyl)penta-1,4-dien-3-one]",,,further increase,significantly increase,,,failed to increase,
"COc1cc(/C=C/C(=O)CC(=O)/C=C/c2ccc(O)c(OC)c2)ccc1O [curcumin, Curcumin, reference compound]",,,,significantly increase,,,failed to increase,
"COc1ccccc1/C=C/C(=O)/C=C/c1ccccc1OC [C1, 1,5-bis(2-methoxyphenyl)penta-1,4-dien-3-one]",,,further increase,significantly increase,,,failed to increase,further increased
